Patent US10206877B2, “Pharmaceutical compositions for the treatment of cystic fibrosis transmembrane conductance regulator mediated diseases” (Vertex Pharmaceuticals Incorporated, priority 2014, dated 2019)

Experiments:
[1] = Compound 1 crystallization kinetics at elevated temperature and 75% relative humidity; format: physicochemical; settings: for Crystallization / stability towards crystallization: 75% relative humidity; for Compound 1 crystallized: at about 25 hours; for stability towards crystallization: 80° C. and 70° C. (FIGS. 12, 13)
Method: FIG. 12 is a plot of crystallization kinetics data for Compound 1 at 80° C. and 75% relative humidity when in a Compound 2 free tablet (circles), a spray dried dispersion (squares), and a tablet comprising Compound 2 (triangles).
FIG. 13 is a plot of crystallization kinetics data for Compound 1 at 70° C. and 75% relative humidity when in a Compound 2 free tablet (circles), a spray dried dispersion (squares), and a tablet comprising Compound 2 (triangles).
FIGS. 12 and 13 depict the Compound 1 crystallization kinetics under 75% relative humidity and 80° C. and 70° C., respectively. Triangles represent a tablet formulation of a blend of the two separate spray dried dispersions of Compound 1 and Compound 2. Circles represent the same tablet formulation just lacking Compound 2. Squares represent the separate spray dried dispersion of Compound 1.
The phenomena of one therapeutic agent having improved properties in the presence of another therapeutic agent is not limited to the neat co-spray dried dispersions substantially free of polymer previously described. […] Table 2 lists the % crystallization of an 80% by weight SDD of Compound 1 over time at 80° C. at 75% relative humidity in the absence of Compound 2. Table 3 lists the % crystallization of Compound 1 in the presence of Compound 2 in a tablet of the present invention comprising a blend of Compound 1 SDD and Compound 2 SDD at […] at 75% relative humidity.

[2] = Kinetic dissolution / fluid stability in fed state simulated intestinal fluid (FedSIF); format: physicochemical
From the text: FIG. 9 is a bar graph of kinetic dissolution data for Compound 1 in fed state simulated intestinal fluid (FedSIF) solutions in the presence of Compound 2 in a neat coSDD substantially free of polymer and alone as measured by concentration versus time.
FIG. 10 is a bar graph of kinetic dissolution data for Compound 2 in FedSIF solutions in the presence of Compound 1 in a neat coSDD substantially free of polymer and alone as measured by concentration versus time.
The present invention features compositions where properties such as physical stability and dissolution rates are improved when one therapeutic agent is in the presence of another. […] FIG. 9 depicts fluid stability of Compound 1 in fed state simulated intestinal fluid (FedSIF). The set of bars labeled Neat 1:1 coSDD is the neat coSDD of Compound 1 and Compound 2 substantially free of polymer featured in the present invention. Along the y axis is concentration of Compound 1 in mg/ml and each bar along the x axis represents time: 0.5 h, 1 h, 3 h, 5 h, 29 h, and 72 h.
FIG. 10 depicts fluid stability of Compound 2 in compositions of the present invention in FedSIF. The set of bars labeled Neat 1:1 coSDD is the neat coSDD of Compound 1 and Compound 2 substantially free of polymer featured in the present invention.

[3] = Dog pK of tablets (Compound 2 exposure); format: in vivo
From the text: FIG. 11 depicts the results of dissolution rate experiments for a tablet comprising the neat co-spray dried dispersion of Compound 1 and Compound 2 (circles) and a tablet comprising a spray dried dispersion of Compound 2 alone and polymer (triangles). […] When Compound 2 is in the presence of Compound 1, the maximum concentration and area under the curve increases by 73% and 47%, respectively, relative to Compound 2 alone.

[4] = Dissolution rate experiments in fasted simulated fluids; format: physicochemical; settings: tablet of neat co-spray dried dispersion of Compound 1 and Compound 2 vs tablet of SDD of Compound 2 alone and polymer; fasted simulated fluids (FIG. 11)
From the text: FIG. 11 is a plot of dissolution data for Compound 2 in fasted simulated fluids alone and in the presence of Compound 1 in a neat coSDD substantially free of polymer. […] FIG. 11 depicts the results of dissolution rate experiments for a tablet comprising the neat co-spray dried dispersion of Compound 1 and Compound 2 (circles) and a tablet comprising a spray dried dispersion of Compound 2 alone and polymer (triangles).

[5] = dog pK, ratio Neat coSDD tablet / Individual Tablets (Compound 2 alone)
[6] = dog, Compound 2 in the presence of Compound 1 relative to Compound 2 alone

For CC(C)(CO)c1cc2cc(NC(=O)C3(c4ccc5c(c4)OC(F)(F)O5)CC3)c(F)cc2n1C[C@@H](O)CO [Compound 1, (R)-1-(2,2-difluorobenzo[d][1,3]dioxol-5-yl)-N-(1-(2,3-dihydroxypropyl)-6-fluoro-2-(1-hydroxy-2-methylpropan-2-yl)-1H-indol-5-yl)cyclopropanecarboxamide], the Crystallization ([1]; 80% by weight SDD of Compound 1, absence of Compound 2, 80° C., 0 Hrs.) was 0%, the Crystallization ([1]; 80% by weight SDD of Compound 1, absence of Compound 2, 80° C., 5.2 Hrs.) was 0% and the Crystallization ([1]; 80% by weight SDD of Compound 1, absence of Compound 2, 80° C., 6 Hrs.) was 0%. It also gave a Crystallization ([1]; 80% by weight SDD of Compound 1, absence of Compound 2, 80° C., 9 Hrs.) of 0.7%, a Crystallization ([1]; 80% by weight SDD of Compound 1, absence of Compound 2, 80° C., 14.7 Hrs.) of 5% and a Crystallization ([1]; 80% by weight SDD of Compound 1, absence of Compound 2, 80° C., 25 Hrs.) of 46.4%. The Crystallization ([1]; 80% by weight SDD of Compound 1, absence of Compound 2, 80° C., 168 Hrs.) was 88%, the “Compound 1 crystallized” value ([1]; in the absence of Compound 2) was 46% and the stability towards crystallization ([1]; tablet blend of the two separate SDDs vs Compound 2 free tablet) was “significantly more stable towards crystallization”. For the same compound, the Crystallization ([1]; tablet comprising a blend of Compound 1 SDD and Compound 2 SDD, 80 CC, 0 Hrs.) was 0%, the Crystallization ([1]; tablet comprising a blend of Compound 1 SDD and Compound 2 SDD, 80 CC, 7 Hrs.) was 3% and the Crystallization ([1]; tablet comprising a blend of Compound 1 SDD and Compound 2 SDD, 80 CC, 14 Hrs.) was 6%. For the same compound, the Crystallization ([1]; tablet comprising a blend of Compound 1 SDD and Compound 2 SDD, 80 CC, 21 Hrs.) was 8%, the Crystallization ([1]; tablet comprising a blend of Compound 1 SDD and Compound 2 SDD, 80 CC, 26 Hrs.) was 10% and the stability towards crystallization ([1]; tablet formulation with Compound 2 vs separate spray dried dispersion of Compound 1) was “also more stable”. For the same compound, the “Compound 1 crystallized” value ([1]; when Compound 2 was present) was 10%, the “concentration stability of Compound 1 in FedSIF” value ([2]; 1:1 coSDD (20% HPMCAS) vs Compound 1 SDD (50% HPMCAS), over 72 h (FIG. 9)) was “concentration stability is greater” and the “concentration stability of Compound 1 in FedSIF” value ([2]; 2:1 coSDD (20% HPMCAS) vs Compound 1 SDD (50% HPMCAS), over 72 h (FIG. 9)) was “more consistent”. The “stability of Compound 1 concentration in FedSIF” value ([2]; Neat 1:1 coSDD (no polymer) vs Compound 1 SDD (50% HPMCAS), over 72 h (FIG. 9)) was “greater and more consistent stability”.

For CC(C)(C)c1cc(C(C)(C)C)c(NC(=O)c2c[nH]c3ccccc3c2=O)cc1O [Compound 2, N-[2,4-bis(1,1-dimethylethyl)-5-hydroxyphenyl]-1,4-dihydro-4-oxoquinoline-3-carboxamide], the “AUC wt norm, Geometric Mean Ratio” value [3, 5] was 146.73, the “Cmax wt norm, Geometric Mean Ratio” value [3, 5] was 172.93 and the “increase of area under the curve” value [3, 6] was 47%. The “increase of maximum concentration” value [3, 6] was 73%, the exposure in vivo ([3]; dog, tablet of neat coSDD relative to tablet of Compound 2 alone) was “statistically significant increases in exposure” and the “concentration stability of Compound 2 in FedSIF” value ([2]; 1:1 coSDD (20% HPMCAS) vs Compound 2 SDD (20% HPMCAS), over 72 h (FIG. 10)) was “concentration stability is greater”. The “concentration stability of Compound 2 in FedSIF” value ([2]; 2:1 coSDD (20% HPMCAS) vs Compound 2 SDD (20% HPMCAS), over 72 h (FIG. 10)) was “more consistent”, the “stability of Compound 2 concentration in FedSIF” value ([2]; Neat 1:1 coSDD (no polymer) vs Compound 2 SDD (20% HPMCAS), over 72 h (FIG. 10)) was “increased stability” and the “dissolution rate of Compound 2” value [4] was “significant increase in dissolution rates”.
